# Test results from US12544359B2, “1-aminosulfonyl-2-carboxypyrrole derivatives as metallo-beta-lactamase inhibitors” (INFEX Therapeutics Limited, priority 2019, dated 2026).
# Counter-ions that a name gives are not always drawn.
# Experiments:
# [1] = tested on: Cerep SafetyScreen44 Panel (44 targets); test: off-target inhibition, Cerep SafetyScreen44 Panel
# Description: Compounds were also tested for off-target inhibition in a Cerep SafetyScreen44 Panel.
# [2] = solubility study in saline, identified visually; type: physicochemical; conditions: 2 mg in 40 μL saline (50 mg/mL), visual; free base unless indicated
# Description: Compounds were also tested in a solubility study. Each sample (2 mg) was weighed into a clear 1.75 mL vial followed by the addition of saline (40 μL, to make up to 50 mg/mL). Unless indicated otherwise, the compounds were tested as the free base. Each resulting mixture was vortexed (if required) and the solubility of each was identified visually.
# [3] = target: NDM-1 (Klebsiella pneumoniae, UniProt C7C422); test: metallo-β-lactamase inhibition assay (nitrocefin); type: biochemical; conditions: 1.5 nM NDM-1, 100 μM nitrocefin, 37° C., pH 7.5
# Description: Compounds of the invention were tested in a metallo-β-lactamase inhibition assay to investigate mechanism of action of the compounds. Results are reported as the concentration of test article required to inhibit enzyme activity by 50% (IC50).
# Inhibition of metallo-β-lactamase enzyme function was performed at 37° C. in buffer at pH 7.5 (50 mM HEPES, 150 mM NaCl, 0.1 mM ZnSO4, 20 μg/mL PEG4000), containing 1.5 nM NDM-1, 100 μM nitrocefin, and a range of concentrations of compound. Absorbance at 490 nm was measured using a BMG LABTECH FLUOstar Omega microplate reader every minute for 30 minutes. IC50s were determined from the average increase in OD per minute versus the Log 10 concentration of compound using GraphPad Prism.
# [4] = Cytotoxicity Assay (CellTiter-Glo); type: cell-based; conditions: human, Hep G2 cells (ATCC HB-8065); 24 h exposure; read-out: HepG2 CC50
# Description: Cytotoxicity was evaluated in human Hep G2 cells (ATCC HB-8065) seeded at a density of 2×10^5 cells per well and incubated for 24 h at 37° C., 5% CO2. Cells were exposed to a doubling dilution series of test article. After 24 h exposure, the viability of the cells was determined using CellTiter-Glo® (Promega, WI, USA) according to the manufacturer's instructions. Results are reported as the concentration of test article required to reduce cell viability by 50% (CC50).
# [5] = tested on: K. pneumoniae ATCC BAA2146 NDM-1; test: Meropenem combination MIC; type: cell-based; conditions: meropenem only (baseline)
# Description: (§1) MICs were determined by exposing bacteria to serial dilutions of antibacterial agents in MHB-II (cation-adjusted Mueller-Hinton Broth pH 7.4) according to Clinical and Laboratory Standards Institute (CLSI) broth microdilution guidelines (Cockerill et al., 2012).
# (§2) Combination MIC were performed as described for MIC determinations with the addition of 4 mg/L test article to MHB-II.
# (§3) The compounds of the invention were tested against a primary panel of bacterial strains, columns I-V of Table 2. As appropriate, compounds considered suitable for further investigation were tested against a secondary panel of bacterial strains, columns VI and VII of Table 2.
# [6] = tested on: E. coli ATCCBAA-2452 NDM-1; test: Meropenem combination MIC; type: cell-based; conditions: meropenem only (baseline)
# Description: as §1, §2, §3
# [7] = tested on: A. baumannii SG698 NDM-1; test: Meropenem combination MIC; type: cell-based; conditions: meropenem only (baseline)
# Description: as §1, §2, §3
# [8] = tested on: K. pneumoniae NCTC13440 VIM-1; test: Meropenem combination MIC; type: cell-based; conditions: meropenem only (baseline)
# Description: as §1, §2, §3
# [9] = tested on: K. pneumoniae NCTC13439 VIM-1; test: Meropenem combination MIC; type: cell-based; conditions: meropenem only (baseline)
# Description: as §1, §2, §3
# [10] = tested on: E. coli NCTC13476 IMP; test: Meropenem combination MIC; type: cell-based; conditions: meropenem only (baseline)
# Description: as §1, §2, §3
# NDM-1, sequence (C7C422 whole entry, looked up, species assumed): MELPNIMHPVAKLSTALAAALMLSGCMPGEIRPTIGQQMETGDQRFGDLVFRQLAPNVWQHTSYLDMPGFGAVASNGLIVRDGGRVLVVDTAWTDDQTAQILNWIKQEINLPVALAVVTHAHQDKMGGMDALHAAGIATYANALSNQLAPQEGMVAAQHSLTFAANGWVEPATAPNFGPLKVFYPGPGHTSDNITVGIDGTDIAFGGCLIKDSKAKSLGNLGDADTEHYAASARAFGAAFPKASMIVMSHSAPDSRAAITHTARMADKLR
IC50 [3] [nM],SMILES,CC50 at 24 h [4] [µg/mL],also measured
319,"CNCCN(C)C(=O)c1ccc(-c2ccn(S(N)(=O)=O)c2C(=O)O)cc1 [Example 25, 3-[4-[Methyl-[2-(methylamino)ethyl]carbamoyl]phenyl]-1-sulfamoyl-pyrrole-2-carboxylic acid]",> 256,Number of targets ≥50% inhibition at 100 μM [1]: 0; Solubility [2]: Soluble
–,"C[C@@H](O)[C@H]1C(=O)N2C(C(=O)O)=C(S[C@@H]3CN[C@H](C(=O)N(C)C)C3)[C@H](C)[C@H]12 [Meropenem, meropenem]",–,Meropenem MIC (μg/mL) III K. pneumoniae ATCC BAA2146 NDM-1 [5]: 16 µg/mL; Meropenem MIC (μg/mL) I E. coli ATCCBAA-2452 NDM-1 [6]: 1 µg/mL; Meropenem MIC (μg/mL) IV A. baumannii SG698 NDM-1 [7]: 8 µg/mL; Meropenem MIC (μg/mL) V K. pneumoniae NCTC13440 VIM-1 [8]: 1 µg/mL; Meropenem MIC (μg/mL) VII K. pneumoniae NCTC13439 VIM-1 [9]: 0.5 µg/mL; Meropenem MIC (μg/mL) II E. coli NCTC13476 IMP [10]: 4 µg/mL
78,"NC1CN(C(=O)c2ccc(-c3ccn(S(N)(=O)=O)c3C(=O)O)cc2)C1 [Example 21, 3-[4-(3-Aminoazetidine-1-carbonyl)phenyl]-1-sulfamoyl-pyrrole-2-carboxylic acid]",> 256,–
410,"NS(=O)(=O)n1ccc(-c2ccc(C(=O)NC3CCNCC3)cc2)c1C(=O)O [Example 36, 3-[4-(4-Piperidylcarbamoyl)phenyl]-1-sulfamoyl-pyrrole-2-carboxylic acid hydrochloride]",> 256,–
420,"NCCNC(=O)c1ccc(-c2ccn(S(N)(=O)=O)c2C(=O)O)cc1 [Example 26, 3-[4-(2-Aminoethyl-carbamoyl)phenyl]-1-sulfamoyl-pyrrole-2-carboxylic acid]",> 256,–
1790,"NS(=O)(=O)n1ccc(-c2ccc(C(=O)NCCN3CCOCC3)cc2)c1C(=O)O [Example 15, 3-[4-(2-Morpholinoethyl-carbamoyl)phenyl]-1-sulfamoyl-pyrrole-2-carboxylic acid]",> 256,–
399,"NCCN1CCC(c2ccn(S(N)(=O)=O)c2C(=O)O)CC1 [Example 85, 3-[1-(2-Aminoethyl)-4-piperidyl]-1-sulfamoyl-pyrrole-2-carboxylic acid]",> 128,–
2490,"NCCC(=O)Nc1ccc(-c2ccn(S(N)(=O)=O)c2C(=O)O)cn1 [Example 94, 3-[6-(3-Aminopropanoylamino)-3-pyridyl]-1-sulfamoyl-pyrrole-2-carboxylic acid, sodium salt]",> 256,–
248,"CNCCN(C)C(=O)C1CCC(c2ccn(S(N)(=O)=O)c2C(=O)O)CC1 (centres unmarked) [Example 87, 3-[4-[Methyl-[2-(methylamino)ethyl]carbamoyl]cyclohexyl]-1-sulfamoyl-pyrrole-2-carboxylic acid]",> 256,–
3330,"NC1CN(C(=O)c2cccc(-c3ccn(S(N)(=O)=O)c3C(=O)O)c2)C1 [Example 31, 3-[3-(3-Aminoazetidine-1-carbonyl)phenyl]-1-sulfamoyl-pyrrole-2-carboxylic acid]",> 256,–
1480,"C[C@H](N)C(=O)N1CCC(c2ccn(S(N)(=O)=O)c2C(=O)O)CC1 [Example 69, 3-[1-[(2S)-2-Aminopropanoyl]-4-piperidyl]-1-sulfamoyl-pyrrole-2-carboxylic acid]",> 256,Number of targets ≥50% inhibition at 100 μM [1]: 0; Solubility [2]: Soluble
187,"NCC1CCN(C(=O)c2ccc(-c3ccn(S(N)(=O)=O)c3C(=O)O)cc2)CC1 [Example 44, 3-[4-[4-(Aminomethyl)piperidine-1-carbonyl]phenyl]-1-sulfamoyl-pyrrole-2-carboxylic acid]",> 256,–
273,"NS(=O)(=O)n1ccc(-c2ccc(C(=O)N[C@H]3[C@@H]4CNC[C@@H]43)cc2)c1C(=O)O [Example 43, 3-[4-[[(1S,5R)-3-Azabicyclo[3.1.0]hexan-6-yl]carbamoyl]phenyl]-1-sulfamoyl-pyrrole-2-carboxylic acid]",> 256,–
131,"NS(=O)(=O)n1ccc(-c2ccc(C(=O)N3CCNCC3)cc2)c1C(=O)O [Example 27, 3-[4-(Piperazine-1-carbonyl)phenyl]-1-sulfamoyl-pyrrole-2-carboxylic acid]",> 256,–
623,"NS(=O)(=O)n1ccc(-c2ccc(C(=O)NCCN3CCCC3=O)cc2)c1C(=O)O [Example 16, 3-[4-[2-(2-Oxopyrrolidin-1-yl)ethylcarbamoyl]phenyl]-1-sulfamoyl-pyrrole-2-carboxylic acid]",> 256,–
